This is an account of results in patent publication US4595535A, “Diazacycloalkyl-1,2,4-triazolo[2,3-c][1,3]benzodiazepines useful as neuroleptic and/or antihistaminic agents” (Ciba-Geigy Corporation, priority 1984, dated 1986).

Data set [1] has as its system avoidance behaviour in monkeys. Description: conditioned avoidance behaviour (lever press to avoid foot shock), monkeys. Particulars: Primates, oral, read-out: oral dose that disrupts avoidance behaviour (decreases avoidance responses). In kind it is in vivo, squirrel monkeys. The protocol: (§1) Each lever press postpones the shock for 30 seconds. Whenever the animal fails to press the lever once within said period, brief (0.5 sec.) shocks are delivered at 15 second intervals until the animal again presses the lever. Under control conditions the animals press the lever at a moderately steady rate and seldom receive more than five or six shocks during a 25-minute (rats) and up to 4-hour experimental session. Said compounds evaluated for neuroleptic activity, are administered to the animals 30, 90, 210 minutes prior to the experimental session and block the learned conditioned avoidance behaviour, manifested by a decrease in avoidance responding with a marked increase in shocks taken by the animal. Both the avoidance responses and failures (shocks received) are recorded separately for evaluation.
(§2) Indicative of the antipsychotic utility of the compounds of this invention, e.g. the compound of example 1, namely 2-methyl-5-(4-methyl-1-piperazinyl)-11H-1,2,4-triazolo[2,3-c][1,3]benzodiazepine maleate, disrupts avoidance behaviour, e.g. decreases avoidance responses in rats and monkeys at an oral dose of about 1.0 mg/kg or lower.

For data set [2], the system named is avoidance behaviour in rats. Description: conditioned avoidance behaviour (lever press to avoid foot shock), rats. In kind it is in vivo. Particulars: Rattus norvegicus, oral, read-out: oral dose that disrupts avoidance behaviour (decreases avoidance responses). The procedure:
as §1, §2

Data set [3] has as its system extrapyramidal side effects, e.g. dyskinesias and dystonias. In words: extrapyramidal side effects in the monkey. In kind it is in vivo. Particulars: at effective antipsychotic doses.
The target in data set [4] is histamine activation of adenylate cyclase. In words: inhibition of histamine activation of adenylate cyclase in vesicles from guinea pig cerebral cortex. In kind it is biochemical. Particulars: 50 micromolar histamine, 3H-cyclic AMP synthesis. The procedure: Finally, said antihistaminic properties can be shown in vitro, e.g., according to Chasin et al., J. Neurochem. 22, 1031 (1974). Vesicles from a cell free preparation of guinea pig cerebral cortex are preincubated with ^3 H-adenine to form endogenous ^3 H-adenosine triphosphate. The vesicles are then incubated with 50 micromolar histamine to activate ^3 H-cyclic adenosine monophosphate synthesis in the absence or presence of the test compound at a concentration between 0.01 and 100 micromolar. When said compound is active, it inhibits the histamine activation of adenylate cyclase. The IC50 represents the concentration at which histamine activation is inhibited by 50%.

On to `Cc1nc2n(n1)C(N1CCN(C)CC1)=Nc1ccccc1C2.O=C(O)/C=C\C(=O)O` [Example 1, 2-methyl-5-(4-methyl-1-piperazinyl)-11H-1,2,4-triazolo[2,3-c][1,3]-benzodiazepine monomaleate], for which the minimal effective dose in data set [1] and in data set [2] was no more than 1 mg/kg throughout. The “extrapyramidal side effects, e.g. dyskinesias and dystonias” value in data set [3] was “essentially free of extrapyramidal side effects”. Further, the IC50 in data set [4] is roughly 300 nM.

As usually defined, the IC50 is the concentration at which inhibition is half-maximal.
